Experimental findings from patent US9061013B2, “Isoxazoline derivatives as antiparasitic agents” (Zoetis LLC, priority 2011, dated 2015) are described below.

The assay concerns Aedes aegypti. Nature of the assay: Mosquito (Aedes aegypti) Larval Assay. Particulars: mosquito larvae in DMSO/water solution, death or paralysis following 24 hour incubation at 22° C., read-out: Minimum Efficacious Dose (MED). The protocol:
Mosquito (Aedes aegypti) Larval Assay
Formula (1) compounds were dissolved in DMSO and water. Five instar mosquito larvae were added to the solution and observed for death or paralysis following a 24 hour incubation period at 22° C. Endpoint data was recorded as Minimum Efficacious Dose (MED) in μM.
Take `O=C(NCC(F)(F)F)C1CN(c2ccc(C3=NOC(c4cc(Cl)c(Cl)c(Cl)c4)(C(F)(F)F)C3)cc2Cl)C1` (centres unmarked) [Example 21, 1-{2-chloro-4-[5-(3,4,5-trichloro-phenyl)-5-trifluoromethyl-4,5-dihydro-isoxazol-3-yl]-phenyl}-azetidine-3-carboxylic acid (2,2,2-trifluoro-ethyl)-amide]: the minimal effective concentration is at most 100 µM.

Take `O=C(NCC(F)(F)F)C1CC(O)(c2ccc(C3=NOC(c4cc(Cl)c(Cl)c(Cl)c4)(C(F)(F)F)C3)cc2)C1` (centres unmarked) [Example 1, 3-hydroxy-3-{4-[5-(3,4,5-trichloro-phenyl)-5-trifluoromethyl-4,5-dihydro-isoxazol-3-yl]-phenyl}-cyclobutanecarboxylic acid (2,2,2-trifluoro-ethyl)-amide]: the minimal effective concentration was at most 100 µM.

Regarding `CNC(=O)C1CC(O)(c2ccc(C3=NOC(c4cc(Cl)c(Cl)c(Cl)c4)(C(F)(F)F)C3)cc2)C1` (centres unmarked) [Example 3, 3-hydroxy-3-{4-[5-(3,4,5-trichloro-phenyl)-5-trifluoromethyl-4,5-dihydro-isoxazol-3-yl]-phenyl}-cyclobutanecarboxylic acid methylamide], the minimal effective concentration is at most 100 µM.

In the case of `CCNC(=O)C1CC(F)(c2ccc(C3=NOC(c4cc(Cl)c(Cl)c(Cl)c4)(C(F)(F)F)C3)cc2)C1` (centres unmarked) [Example 14, 3-fluoro-3-{4-[5-(3,4,5-trichloro-phenyl)-5-trifluoromethyl-4,5-dihydro-isoxazol-3-yl]-phenyl}-cyclobutanecarboxylic acid ethylamide], the minimal effective concentration was at most 100 µM.

With `CN(C)C(=O)C1CC(O)(c2ccc(C3=NOC(c4cc(Cl)c(Cl)c(Cl)c4)(C(F)(F)F)C3)cc2)C1` (centres unmarked) [Example 4, 3-hydroxy-3-{4-[5-(3,4,5-trichloro-phenyl)-5-trifluoromethyl-4,5-dihydro-isoxazol-3-yl]-phenyl}-cyclobutanecarboxylic acid dimethylamide], the minimal effective concentration is at most 100 µM.

With `O=C(NCC(F)(F)F)C1CN(c2ccc(C3=NOC(c4cc(Cl)c(Cl)c(Cl)c4)(C(F)(F)F)C3)cc2)C1` (centres unmarked) [Example 18, 1-{4-[5-(3,4,5-trichloro-phenyl)-5-trifluoromethyl-4,5-dihydro-isoxazol-3-yl]-phenyl}-azetidine-3-carboxylic acid (2,2,2-trifluoro-ethyl)-amide], the minimal effective concentration was at most 100 µM.

Regarding `O=C(NC1CC(F)(c2ccc(C3=NOC(c4cc(Cl)c(Cl)c(Cl)c4)(C(F)(F)F)C3)cc2)C1)C1CC1` (centres unmarked) [Example 24, N-(3-fluoro-3-(4-(5-(3,4,5-trichlorophenyl)-5-(trifluoromethyl)-4,5-dihydroisoxazol-3-yl)phenyl)cyclobutyl)cyclopropanecarboxamide], the minimal effective concentration is at most 100 µM.

With `CN(C)C(=O)C1CN(c2ccc(C3=NOC(c4cc(Cl)c(Cl)c(Cl)c4)(C(F)(F)F)C3)cc2)C1` (centres unmarked) [Example 19, 1-{4-[5-(3,4,5-trichloro-phenyl)-5-trifluoromethyl-4,5-dihydro-isoxazol-3-yl]-phenyl}azetidine-3-carboxylic acid dimethylamide], the minimal effective concentration is at most 100 µM.

For `CS(=O)(=O)CC(=O)NC1CC(F)(c2ccc(C3=NOC(c4cc(Cl)c(Cl)c(Cl)c4)(C(F)(F)F)C3)cc2)C1` (centres unmarked) [Example 25, N-(3-fluoro-3-(4-(5-(3,4,5-trichlorophenyl)-5-(trifluoromethyl)-4,5-dihydroisoxazol-3-yl)phenyl)cyclobutyl)-2-(methylsulfonyl)acetamide], the minimal effective concentration was at most 100 µM.

Take `CN(C)C(=O)C1CC(F)(c2ccc(C3=NOC(c4cc(Cl)c(Cl)c(Cl)c4)(C(F)(F)F)C3)cc2)C1` (centres unmarked) [Example 11, 3-fluoro-3-{4-[5-(3,4,5-trichloro-phenyl)-5-trifluoromethyl-4,5-dihydro-isoxazol-3-yl]-phenyl}-cyclobutanecarboxylic acid dimethylamide]: the minimal effective concentration is at most 100 µM.

Consider `CC(C)NC(=O)C1CC(F)(c2ccc(C3=NOC(c4cc(Cl)c(Cl)c(Cl)c4)(C(F)(F)F)C3)cc2)C1` (centres unmarked) [Example 13], for which the minimal effective concentration is at most 100 µM.

For the compound `O=C(NCC(F)(F)F)C1CC(F)(c2ccc(C3=NOC(c4cc(Cl)c(Cl)c(Cl)c4)(C(F)(F)F)C3)cc2)C1` (centres unmarked) [Example 7, 3-fluoro-3-{4-[5-(3,4,5-trichloro-phenyl)-5-trifluoromethyl-4,5-dihydro-isoxazol-3-yl]-phenyl}-cyclobutanecarboxylic acid (2,2,2-trifluoro-ethyl)-amide], the minimal effective concentration is at most 100 µM.

Regarding `CNC(=O)C1CN(c2ccc(C3=NOC(c4cc(Cl)c(Cl)c(Cl)c4)(C(F)(F)F)C3)cc2)C1` (centres unmarked) [Example 17, 1-{4-[5-(3,4,5-trichloro-phenyl)-5-trifluoromethyl-4,5-dihydro-isoxazol-3-yl]-phenyl}-azetidine-3-carboxylic acid methylamide], the minimal effective concentration is at most 100 µM.

`CNC(=O)C1CC(F)(c2ccc(C3=NOC(c4cc(Cl)c(Cl)c(Cl)c4)(C(F)(F)F)C3)cc2)C1` (centres unmarked) [Example 10, 3-fluoro-3-{4-[5-(3,4,5-trichloro-phenyl)-5-trifluoromethyl-4,5-dihydro-isoxazol-3-yl]-phenyl}-cyclobutanecarboxylic acid methylamide]: the minimal effective concentration is at most 100 µM.

`CN(C)C(=O)C1CN(c2ccc(C3=NOC(c4cc(Cl)c(Cl)c(Cl)c4)(C(F)(F)F)C3)cc2Cl)C1` (centres unmarked) [Example 23, 1-{2-chloro-4-[5-(3,4,5-trichloro-phenyl)-5-trifluoromethyl-4,5-dihydro-isoxazol-3-yl]-phenyl}-azetidine-3-carboxylic acid dimethylamide]: the minimal effective concentration was at most 100 µM.

With `O=C(CNC(=O)C1CC(F)(c2ccc(C3=NOC(c4cc(Cl)c(Cl)c(Cl)c4)(C(F)(F)F)C3)cc2)C1)NCC(F)(F)F` (centres unmarked) [Example 15, 3-fluoro-N-(2-oxo-2-((2,2,2-trifluoroethyl)amino)ethyl)-3-(4-(5-(3,4,5-trichlorophenyl)-5-(trifluoromethyl)-4,5-dihydroisoxazol-3-yl)phenyl)cyclobutanecarboxamide], the minimal effective concentration was at most 100 µM.

For the compound `O=C(NC1CC1)C1CN(c2ccc(C3=NOC(c4cc(Cl)c(Cl)c(Cl)c4)(C(F)(F)F)C3)cc2Cl)C1` (centres unmarked) [Example 22, 1-{2-chloro-4-[5-(3,4,5-trichloro-phenyl)-5-trifluoromethyl-4,5-dihydro-isoxazol-3-yl]-phenyl}-azetidine-3-carboxylic acid cyclopropylamide], the minimal effective concentration was at most 100 µM.

For the compound `O=C(NC1CC1)C1CC(O)(c2ccc(C3=NOC(c4cc(Cl)c(Cl)c(Cl)c4)(C(F)(F)F)C3)cc2)C1` (centres unmarked) [Example 2, 3-hydroxy-3-{4-[5-(3,4,5-trichloro-phenyl)-5-trifluoromethyl-4,5-dihydro-isoxazol-3-yl]-phenyl}-cyclobutanecarboxylic acid cyclopropylamide], the minimal effective concentration was at most 100 µM.

Consider `CNC(=O)C1CN(c2ccc(C3=NOC(c4cc(Cl)c(Cl)c(Cl)c4)(C(F)(F)F)C3)cc2Cl)C1` (centres unmarked) [Example 20, 1-{2-chloro-4-[5-(3,4,5-trichloro-phenyl)-5-trifluoromethyl-4,5-dihydro-isoxazol-3-yl]-phenyl}-azetidine-3-carboxylic acid methylamide], for which the minimal effective concentration was at most 100 µM.

Regarding `O=C(NC1CC1)C1CN(c2ccc(C3=NOC(c4cc(Cl)c(Cl)c(Cl)c4)(C(F)(F)F)C3)cc2)C1` (centres unmarked) [Example 16, 1-{4-[5-(3,4,5-trichloro-phenyl)-5-trifluoromethyl-4,5-dihydro-isoxazol-3-yl]-phenyl}-azetidine-3-carboxylic acid cyclopropylamide], the minimal effective concentration was at most 100 µM.
